System: A549-NF-κB-SEAP reporter cells
Test: Inhibition of NF-κB-induced inflammation ([…] NINA Instant Assay, SEAP reporter)
Type: cell-based
Settings: for Biological activity (NF-κB inflammation assay, inhibition): TNF-α stimulated reporter cells, test concentration not given
From the text: For the determination of anti-inflammatory activity of the compounds the […]® NINA Instant Assay from Cell Culture Service GmBH was used. This assay is based on recombinant A549-NF-κB-SEAP reporter cells preseeded in 96-well flat bottom plates. As the transfected reportergen for SEAP (secreted embryonic alkaline phosphatase) is under transcriptional control of a NF-κB-responsive element, the expression of this reporter is activated upon stimulation with TNF-α. SEAP secretion into the culture supernatant can be detected by the chemiluminescent substrate CSPD®. Test compounds that inhibit the NF-κB activation show reduced SEAP activity and reduced luminescent readout.
Following 18 h of reactivation at 37° C., 5% CO2 and 90% relative humidity, the cells were incubated with 0.01 up to 100 μM of test compound for 4.5 h before stimulation with 2 ng/ml TNF-α. After stimulation with TNF-α for 22 h endogenous phosphatases were inactivated and CSPD® substrate was supplied for 40 min. SEAP activity then was quantified by measuring luminescence as relative light units (RLU) using a Tecan Ultra reader. Each data point was recorded in quadruplicates and EC50 values were calculated via fitting function and the Microsoft Excel Solver.

Structure (SMILES) | Biological activity (NF-κB inflammation assay, inhibition) (compounds of formula (I)) | further results
O=C(c1csc(C2CCN(S(=O)(=O)Cc3ccccc3)CC2)n1)N1CCN(c2cccc(C(F)(F)F)c2)CC1 [compound 198] | + (“+” stands for 50-80% inhibition) | 
N=C(NC(=O)c1csc(N2CCOCC2)n1)Nc1nc2ccccc2[nH]1 [compound 49] |  | Biological activity (inhibition in the NF-κB inflammation assay): +++ (“+++” stands for 90-100% inhibition)
N=C(NC(=O)c1coc(NC(=O)c2ccc(C(F)(F)F)c(F)c2)n1)Nc1nc2ccccc2[nH]1 [compound 27] |  | Biological activity (inhibition in the NF-κB inflammation assay): +++ (“+++” stands for 90-100% inhibition)
O=C(Nc1ccccc1)N1CCC(c2nc(C(=O)N3CCN(c4cccc(C(F)(F)F)c4)CC3)cs2)CC1 [compound 134] |  | Biological activity (NF-κB inflammation assay, inhibition) (compounds of formula (Ia)): + (“+” stands for 50-80% inhibition)
O=C(c1csc(C2CCN(C(=O)c3ccco3)CC2)n1)N1CCN(c2cccc(C(F)(F)F)c2)CC1 [compound 230] | + (“+” stands for 50-80% inhibition) | 
O=C(c1csc(C2CCN(Cc3ccc(C(F)(F)F)cc3)CC2)n1)N1CCN(c2cccc(C(F)(F)F)c2)CC1 [compound 169] | + (“+” stands for 50-80% inhibition) | 
COc1cc2c(cc1OC)CN(C(=O)c1csc(C3CCN(C(=O)Cc4ccc(F)cc4)CC3)n1)C(C)C2 (stereo not shown) [compound 232] |  | Biological activity (NF-κB inflammation assay, inhibition) (compounds of formula (Ic)): + (“+” stands for 50-80% inhibition)
COc1nc(OC)nc(N2CCN(C(=O)c3csc(C4CCN(Cc5ccccc5)CC4)n3)CC2)n1 [compound 120] | + (“+” stands for 50-80% inhibition) | 
COc1cc2c(cc1OC)CN(C(=O)c1csc(C3CCN(C(=O)Cc4ccc(F)cc4)CC3)n1)CC2 [compound 161] |  | Biological activity (NF-κB inflammation assay, inhibition) (compounds of formula (Ic)): + (“+” stands for 50-80% inhibition)
O=C(c1csc(C2CCN(Cc3ccc(F)cc3)CC2)n1)N1CCN(c2cccc(C(F)(F)F)c2)CC1 [compound 170] | + (“+” stands for 50-80% inhibition) | 
N=C(NC(=O)c1csc(NC(=O)c2ccccc2C2CCCCC2)n1)Nc1nc2ccccc2[nH]1 [compound 45] |  | Biological activity (inhibition in the NF-κB inflammation assay): +++ (“+++” stands for 90-100% inhibition)
CN1CCN(c2ccc3nc(NC(=O)c4csc(NC(=O)c5ccccc5OC(F)(F)F)n4)sc3c2)CC1 [compound 42] |  | Biological activity (inhibition in the NF-κB inflammation assay): +++ (“+++” stands for 90-100% inhibition)
O=C(NCC1CCN(c2nc(C(=O)N3CCN(c4cccc(C(F)(F)F)c4)CC3)cs2)CC1)c1ccc(C(F)(F)F)c(F)c1 [compound 99] |  | Biological activity (NF-κB inflammation assay, inhibition) (compounds of formula (II)): + (“+” stands for 50-80% inhibition)
O=C(c1csc(C2CCN(c3cc(C(F)(F)F)ccn3)CC2)n1)N1CCN(c2cccc(C(F)(F)F)c2)CC1 [compound 118] | + (“+” stands for 50-80% inhibition) | 
O=C(NCCc1cccs1)N1CCC(c2nc(C(=O)N3CCN(c4cccc(C(F)(F)F)c4)CC3)cs2)CC1 [compound 77] |  | Biological activity (NF-κB inflammation assay, inhibition) (compounds of formula (Ia)): +++ (“+++” stands for 90-100% inhibition)
COc1ccc(N2CCC(c3nc(C(=O)N4CCN(c5cccc(C(F)(F)F)c5)CC4)cs3)CC2)c(OC)c1 [compound 153] | + (“+” stands for 50-80% inhibition) | 
O=C(c1csc(C2CCN(C(=O)c3cc(-c4ccc(Cl)cc4)oc3C(F)(F)F)CC2)n1)N1CCN(c2cccc(C(F)(F)F)c2)CC1 [compound 218] | +++ (“+++” stands for 90-100% inhibition) | 
CSc1nccc(N2CCN(C(=O)c3csc(C4CCN(C(=O)c5ccccc5OC(F)(F)F)CC4)n3)CC2)n1 [compound 124] | + (“+” stands for 50-80% inhibition) | 
O=C(c1csc(C2CCN(Cc3ccc(OC(F)(F)F)cc3)CC2)n1)N1CCN(c2cccc(C(F)(F)F)c2)CC1 [compound 172] | + (“+” stands for 50-80% inhibition) | 

Reference: patent US7601745B2, “Heterocyclic NF-kB inhibitors” (4SC AG, priority 2004, dated 2009)
